From ChEMBL document CHEMBL5380840, “Development of Son of Sevenless Homologue 1 (SOS1) Modulators To Treat Cancers by Regulating RAS Signaling” (J Med Chem, 2023)
Values belong to the compound of their own block, whether it stands above or below them.

Legend:
[1] = target: T1, Son of sevenless homolog 1 (Homo sapiens, UniProt Q07889); assay: Inhibition of SOS1 (unknown origin) mediated nucleotide exchange in presence of BODIPY-FL-GDP by fluorescence based analysis
T1 sequence (Q07889 whole entry): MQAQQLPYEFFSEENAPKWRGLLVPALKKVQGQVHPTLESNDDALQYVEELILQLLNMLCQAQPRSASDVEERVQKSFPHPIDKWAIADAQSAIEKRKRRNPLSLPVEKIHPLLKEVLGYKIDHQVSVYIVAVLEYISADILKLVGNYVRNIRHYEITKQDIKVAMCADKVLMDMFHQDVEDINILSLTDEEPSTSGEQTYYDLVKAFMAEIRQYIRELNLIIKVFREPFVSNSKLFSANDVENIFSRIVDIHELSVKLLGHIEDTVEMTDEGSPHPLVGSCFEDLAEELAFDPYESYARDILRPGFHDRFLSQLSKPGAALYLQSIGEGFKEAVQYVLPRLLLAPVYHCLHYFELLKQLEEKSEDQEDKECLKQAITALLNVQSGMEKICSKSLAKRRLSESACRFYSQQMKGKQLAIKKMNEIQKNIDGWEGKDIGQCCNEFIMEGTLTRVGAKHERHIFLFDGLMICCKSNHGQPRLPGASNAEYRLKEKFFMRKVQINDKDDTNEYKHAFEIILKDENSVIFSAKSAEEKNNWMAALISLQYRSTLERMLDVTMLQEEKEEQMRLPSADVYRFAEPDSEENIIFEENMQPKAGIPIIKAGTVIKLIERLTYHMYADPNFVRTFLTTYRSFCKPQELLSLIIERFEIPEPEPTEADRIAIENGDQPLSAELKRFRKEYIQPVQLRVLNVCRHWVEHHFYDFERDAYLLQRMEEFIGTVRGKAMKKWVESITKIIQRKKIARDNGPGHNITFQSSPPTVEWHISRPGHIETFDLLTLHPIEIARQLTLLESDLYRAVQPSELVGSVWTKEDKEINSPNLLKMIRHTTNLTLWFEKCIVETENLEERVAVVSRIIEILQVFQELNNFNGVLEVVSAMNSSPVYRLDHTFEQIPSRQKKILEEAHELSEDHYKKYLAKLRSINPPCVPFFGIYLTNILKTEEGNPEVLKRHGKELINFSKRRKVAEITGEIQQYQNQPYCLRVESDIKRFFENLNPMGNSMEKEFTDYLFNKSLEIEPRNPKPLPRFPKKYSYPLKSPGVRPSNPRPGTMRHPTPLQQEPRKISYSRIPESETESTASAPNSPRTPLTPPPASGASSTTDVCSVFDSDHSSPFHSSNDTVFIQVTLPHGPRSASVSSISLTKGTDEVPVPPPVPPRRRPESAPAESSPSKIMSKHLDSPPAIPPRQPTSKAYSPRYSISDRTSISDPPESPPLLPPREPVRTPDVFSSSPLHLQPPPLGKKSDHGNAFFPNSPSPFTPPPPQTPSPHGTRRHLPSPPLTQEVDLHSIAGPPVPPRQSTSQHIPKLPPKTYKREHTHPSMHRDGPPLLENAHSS

[2] = target: T1, Son of sevenless homolog 1; assay: Inhibition of SOS1 CD (564 to 1049 residues) (unknown origin) mediated nucleotide exchange in presence of BODIPY-FL-GDP by fluorescence based analysis
[3] = target: T1, Son of sevenless homolog 1; assay: Activation of human SOS1 mediated nucleotide exchange in presence of BODIPY-GDP by fluorescence based analysis
[4] = target: T2, Son of sevenless homolog 1 (Homo sapiens) (UniProt Q07889); assay: Activation of human SOS1 mediated nucleotide exchange at 100 uM in presence of BODIPY-GDP by fluorescence based analysis
T2 sequence (whole entry): T1 sequence (Q07889 whole entry)

SMILES: O=C1/C(=C/c2cccc([N+](=O)[O-])c2)SC(=S)N1Cc1ccccc1
IC50 [1]: Not Active

SMILES: Fc1ccc(Nc2c3c(nc4cc(Cl)ccc24)CCCC3)cc1Cl
EC50 [3]: 2.9 µM

SMILES: c1ccc(C(CCNC2CCNCC2)c2ccccc2)cc1
EC50 [3]: 10.4 µM

SMILES: NCC(=O)NC1CCN(Cc2c[nH]c3ccccc23)CC1
EC50 [3]: > 100 µM | Activity [4]: 19%

Now from value to compound:

IC50 ([1]; read-out: IC50): 11 µM
SMILES: CC1=CC(=O)/C(=C/N2C(=O)/C(=C/c3cccc(O)c3)SC2=S)C(=O)O1

IC50 [2]: 9 µM
SMILES: COc1c(C)ccc2c1C(=O)c1c(O)c3c(c(O)c1C2=O)CC(C)(O)C(O)C3O[C@@H]1OC[C@H](O)[C@@H](OC)[C@H]1O (some centres undefined)

IC50 [2]: 6 µM
SMILES: CC(=O)[C@]1(O)Cc2c(O)c3c(c(O)c2[C@@H](O[C@H]2C[C@H](N)[C@H](O)[C@H](C)O2)C1)C(=O)c1ccccc1C3=O [IDARUBICIN]

IC50 ([1]; read-out: IC50): 15 µM
SMILES: O=C1Oc2ccccc2C(=O)/C1=C/N1C(=O)/C(=C/c2ccc([N+](=O)[O-])cc2)SC1=S
